From US8198452B2, “Polymorphic forms and process” (Merck Patent Gesellschaft MIT Beschränkter Haftung, priority 2006, dated 2012)

Legend:
Assay type in all cases: physicochemical
[1] = thermodynamic stability of crystalline forms; conditions: versus form A2, A3 (b74 also the amorphous form, especially at room temperature)
[2] = chemical stability (thermal stability and light stability)
Text: The expression chemical stability includes, but is not limited to, thermal stability and light stability.

[3] = hygroscopicity of crystalline forms
[4] = stability of the basic, non-salt form

chemical stability (shelf-life, thermal stability and light stability) [2] | hygroscopicity [3] | stability in basic, i.e. non-salt, form [4] | SMILES | thermodynamic stability compared with other forms [1] | hygroscopicity compared with other forms ([3]; versus form A2, A3 and the amorphous form, especially at room temperature)
better chemical stability | essentially non-hygroscopic |  | CN(C)CCNC(=O)NC[C@H]1CC[C@@H]2[C@H](O1)c1cc(C(F)(F)F)ccc1N[C@H]2c1ccccc1 [Form A1, 1-(2-Dimethylamino-ethyl)-3-((2R,4aS,5R,10bS)-5-phenyl-9-trifluoromethyl-3,4,4a,5,6,10b-hexahydro-2H-pyrano[3,2-c]quinolin-2-ylmethyl)-urea] | thermodynamically more stable than form A2 and A3 | less hygroscopic than form A2, A3 and the amorphous form
 |  | especially stable | CN(C)CCNC(=O)NC[C@H]1CC[C@@H]2[C@H](O1)c1cc(C(F)(F)F)ccc1N[C@H]2c1ccccc1 [compound of formula II, 1-(2-Dimethylamino-ethyl)-3-((2R,4aS,5R,10bS)-5-phenyl-9-trifluoromethyl-3,4,4a,5,6,10b-hexahydro-2H-pyrano[3,2-c]quinolin-2-ylmethyl)-urea] |  | 
